Reference: paper PMC5090206, “Fluselenamyl: A Novel Benzoselenazole Derivative for PET Detection of Amyloid Plaques (Aβ) in Alzheimer’s Disease” (Scientific Reports, 2016)
Read-outs that look alike come from different tables or passages of the source.

Legend:
[1] = test system: AD homogenates; experiment: Competition of unlabeled ligands against [18F]-9 binding on AD homogenates; parameters: species or system human; settings: for displacement of [18F]-9 specific binding: AD homogenates, unlabeled competitor
Description: Literature precedents indicate the presence of at least three different binding sites, characterized as BS1, BS2 and BS3 on the Aβ fibrils in vitro[24] and extracts from AD homogenates. […] Further, to evaluate ability of [^18F]-9 for labeling Aβ in autopsy confirmed human brain sections, autoradiography and immunohistochemical correlations were also performed.

[2] = comparison values, no reference given; cited from earlier work
[3] = normal mice, cited from earlier work
[4] = target: Aβ plaques (Homo sapiens, UniProt P05067); experiment: Histological staining of human AD brain tissue sections; settings: AD frontal lobe sections
Description: To further assess ability of the 5 to label Aβ plaques in human brain, staining experiments were also performed with postmortem tissues from clinically-characterized AD patients[35][36] As a positive control, a highly specific anti-Aβ antibody (10D5, Eli Lilly, Indianapolis, IN) was used to ascertain the presence of Aβ plaques (Fig. 4A), using well-established procedures for assessment of Aβ plaques in postmortem brain[37]. […] Noticeably, 5 also indicated proficient and distinct labeling of plaque and leptomeningeal vessels (cerebral amyloid angiopathy; CAA) (Fig. 4B). […] This high specificity of 5 for Aβ could be attributed to presence of a benzoselenazole ring within Fluselenamyl. Overall, the ability and sensitivity of 5 to detect diffuse plaques and specificity for AD could represent an important advancement to enable PET imaging of mildly demented individuals, prior to onset of symptoms.
Scientific Reports Version of August 4, 2016
µm) were cut in the coronal plane on a freezing sliding microtome and stored at -20°C. 7,8 Tissue was stained as free-floating sections. Prior to staining, tissue sections were permeabilized with PBS-Tritron-X-100 (0.25%) for 30 minutes, and then blocked with 1% non-fat dry milk in PBS-Ttiton-X-100 for 60 minutes.
Hippocampus tissue sections of APP+/-/PS1+/- and age-matched control BL/6 (WT, SI Figure 3) were incubated with fluorescent molecule 5 (100 nM dissolved in 1% ethanol in PBS) for 60 minutes, and washed 3-times with PBS-Triton-X-100.9 Thereafter, tissue sections were incubated with mouse-anti-Aβ (mHJ3.4) 7 that was directly conjugated to Alexa 568 for 90 minutes and washed 3-times with PBS-Triton-X-100.
Tissue sections were mounted onto SuperFrost Plus slides, dried overnight at room temperature, and then sealed with Fluoromount G (Southern Biotech, Birmingham, AL). […]
other neurodegenerative diseases (SI, Figure 4A & 4B). Sections were visualized, processed, and analyzed using a Pascal confocal microscope. […]

[5] = target: AD homogenates; settings: read-out: binding affinity with AD homogenates; cited from earlier work

Aβ plaques, sequence (P05067 672-711 limits assumed): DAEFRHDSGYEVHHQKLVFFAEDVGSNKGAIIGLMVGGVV

With [11CH3]Nc1ccc(-c2nc3ccc(O)cc3s2)cc1 [PiB] the “displacement of [18F]-9 specific binding” value [1] was “significant displacement”.
With O=C(O)c1cc(/N=N/c2ccc(-c3ccc(/N=N/c4ccc(O)c(C(=O)O)c4)cc3)cc2)ccc1O [Chrysamine G] the “displacement of [18F]-9 specific binding” value [1] was “no displacement”.
In the case of CNc1ccc(/C=C/c2ccc(OCCOCCOCC[18F])nc2)cc1 [[^18F]-AV-45], the “log P” value [2] is listed as 2.4, the “%ID/g (brain)” value ([3]; 2 min) is listed as 7.33 ± 1.54 %ID/g and the “%ID/g (brain)” value ([3]; 2 h) is listed as 1.80 ± 0.07 %ID/g. For the same compound, the “brain uptake ratio 2 min/2 h” value [3] was 4.07.
In the case of Nc1ccc(C=Cc2ccc(OCCOCCOCC[18F])nc2)cc1 [desmethylated], the “brain uptake of metabolites of [18F]-AV-45” value ([3]; at 2 min) is listed as 4.5 % ID/g.
In the case of CN(C)c1ccc(-c2cn3cc(I)ccc3n2)cc1 [IMPY], the “displacement of [18F]-9 specific binding” value [1] is reported as “significant displacement” and the Ki ([1]; competition against [18F]-9 on AD homogenates) is reported as 6.3 nM.
In the case of thioflavin S [reference compound], the “staining of diffuse plaques” value [4] is reported as “only weak staining of diffuse plaques”.
In the case of CNc1ccc(/C=C/c2ccc(OCCOCCOCCF)cc2)cc1 [[^18F]-Florbetaben], the Kd [5] is listed as 16 nM, the “log P” value [2] is listed as 3.22 and the “%ID/g (brain)” value ([3]; 2 min) is listed as 4.77 %ID/g. For the same compound, the “%ID/g (brain)” value ([3]; 4 h) was 0.95 %ID/g and the “brain uptake ratio 2 min/4 h” value [3] was 5.02.
In the case of CNc1ccc(-c2nc3ccc(O)cc3s2)cc1F [[^18F]-Flutemetamol], the Kd [5] is given as 6.7 nM.
In the case of CNc1ccc(/C=C/c2ccc(OCCOCCOCCF)nc2)cc1 [[^18F]-AV-45], the Kd [5] is listed as 3.7 nM.
